Source: article PMC8508710, “Biochemical Characterization of 13-Lipoxygenases of Arabidopsis thaliana” (International Journal of Molecular Sciences, 2021)

Columns and labels:
Parameters in all cases: made in house; host or cells: E. coli Nico21(DE3), pET15b
[1] = target: T1, LOX2 (Arabidopsis thaliana, UniProt P38418); assay: Intrinsic fluorescence of LOX2; format: binding; settings: as Figure 5B; for Emission maximum: control 336.5±0.6, in nm (unit assumed); for Relative fluorescence intensity at emission maximum: λExc = 280 nm, control 125.5±2.0
T1 sequence (P38418 71-896): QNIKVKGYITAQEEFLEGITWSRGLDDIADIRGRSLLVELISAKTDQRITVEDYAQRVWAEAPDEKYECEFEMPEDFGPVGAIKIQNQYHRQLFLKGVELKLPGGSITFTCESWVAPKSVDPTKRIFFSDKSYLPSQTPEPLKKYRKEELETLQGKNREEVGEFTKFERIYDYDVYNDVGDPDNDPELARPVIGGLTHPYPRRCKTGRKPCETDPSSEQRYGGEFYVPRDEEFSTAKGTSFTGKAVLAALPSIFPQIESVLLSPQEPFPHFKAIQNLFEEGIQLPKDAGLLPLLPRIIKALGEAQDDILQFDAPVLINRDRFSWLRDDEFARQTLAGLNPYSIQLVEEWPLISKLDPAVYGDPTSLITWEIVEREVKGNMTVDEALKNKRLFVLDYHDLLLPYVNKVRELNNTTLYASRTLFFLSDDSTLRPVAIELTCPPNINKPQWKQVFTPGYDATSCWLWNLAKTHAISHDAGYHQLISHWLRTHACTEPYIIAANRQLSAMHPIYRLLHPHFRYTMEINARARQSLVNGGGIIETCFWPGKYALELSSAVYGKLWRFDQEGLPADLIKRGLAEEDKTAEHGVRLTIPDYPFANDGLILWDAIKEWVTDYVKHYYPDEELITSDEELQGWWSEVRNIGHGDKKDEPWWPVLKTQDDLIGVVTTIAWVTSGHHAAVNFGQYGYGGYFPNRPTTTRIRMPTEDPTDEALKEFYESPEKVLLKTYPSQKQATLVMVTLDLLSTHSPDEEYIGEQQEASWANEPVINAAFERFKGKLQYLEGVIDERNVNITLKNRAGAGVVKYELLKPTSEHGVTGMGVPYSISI
Experimental: (§1) Figure 5 Analysis of the interaction of 12-OPDA and MJ with LOX4. […] LOX4 (0.22 µg/µL) was incubated with compounds at indicated concentrations for 10 min at 30 °C, and residual LOX activity was measured spectrophotometrically by the injection of 3 µL incubation mixture into 123 µL LeA (4.8 µM in 50 mM Tris-HCl, pH 7.2). […] (B) Intrinsic fluorescence of LOX4 incubated with 12-OPDA, MJ and solvent (control). Here, 120 µL LOX4 (0.2 µg/µL) was mixed with 15 µL chemical (1.4 mM in 50 mM K-Pi, pH 8.0) or solvent (control) and analyzed for intrinsic fluorescence emission after excitation at λExc = 280 nm. Mean graphs are shown (n = 4).
Int. J. Mol. Sci. 2021, 22, x FOR PEER REVIEW 11 of 17
Figure S7. Interaction and activity studies of LOX2, LOX3 and LOX6. (A) LOX2, LOX3 and LOX6 activities in presence of increasing amounts of MJ and 12-OPDA. Analysis was performed as described for IC50 determination of LOX4 (see Figure 5A). 100% activity […]
(B) Intrinsic fluorescence of LOX2 and LOX3 incubated with 12-OPDA, MJ and solvent control. Analysis was performed as in Figure 5B. […]

[2] = target: T2, LOX4 (Arabidopsis thaliana, UniProt Q9FNX8); assay: Intrinsic fluorescence of LOX4; format: binding; settings: 156 µM chemical; λExc = 280 nm; control 98.1 ± 3.9
T2 sequence (Q9FNX8 71-926): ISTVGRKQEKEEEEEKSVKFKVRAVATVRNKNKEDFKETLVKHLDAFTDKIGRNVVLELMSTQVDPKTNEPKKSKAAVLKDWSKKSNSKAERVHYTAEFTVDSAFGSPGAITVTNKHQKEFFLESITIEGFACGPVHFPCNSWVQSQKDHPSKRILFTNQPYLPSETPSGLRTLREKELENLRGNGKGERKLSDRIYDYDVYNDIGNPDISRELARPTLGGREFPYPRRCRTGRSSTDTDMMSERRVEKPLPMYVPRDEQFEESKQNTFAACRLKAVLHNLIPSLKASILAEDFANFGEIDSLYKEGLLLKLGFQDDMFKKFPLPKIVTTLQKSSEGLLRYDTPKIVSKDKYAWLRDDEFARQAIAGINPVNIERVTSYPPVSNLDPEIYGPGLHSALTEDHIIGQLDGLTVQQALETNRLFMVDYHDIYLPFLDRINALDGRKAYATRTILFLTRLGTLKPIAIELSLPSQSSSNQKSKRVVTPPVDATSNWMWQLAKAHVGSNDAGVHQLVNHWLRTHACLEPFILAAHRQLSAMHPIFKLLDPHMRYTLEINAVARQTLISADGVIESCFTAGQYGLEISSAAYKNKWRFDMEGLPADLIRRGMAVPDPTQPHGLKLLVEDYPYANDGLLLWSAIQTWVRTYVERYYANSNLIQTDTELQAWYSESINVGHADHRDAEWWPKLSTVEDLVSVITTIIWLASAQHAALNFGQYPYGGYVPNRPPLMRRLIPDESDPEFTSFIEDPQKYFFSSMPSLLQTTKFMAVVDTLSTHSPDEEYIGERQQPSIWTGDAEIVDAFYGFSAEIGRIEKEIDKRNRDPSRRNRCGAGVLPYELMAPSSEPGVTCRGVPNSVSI
Experimental: as §1

[3] = target: T2, LOX4; assay: Free thiols of LOX4 (Ellman, DTNB); settings: LOX4 4.2 µM incubated 20 min with 12-OPDA; control 7.6 ± 0.1
Experimental: The iron content was analyzed as described. Free protein thiols were determined as described in [80] with slight variations. Briefly, 150 µL LOX4 (4.2 µM) was mixed with 1.5 µL 30 mM 12-OPDA (in EtOH) or EtOH (solvent control). After 20 min of incubation at 25 °C, samples were mixed with 10 µL dithionitrobencene (DTNB, 2 mM in 40 mM K-Pi, pH 8.0) and incubated for 30 min in the dark. Samples were measured at 412 nm, ε412nm = 13,600 […] (KC4 microplate reader, Biotec, 25 °C) for determination of the thiol/protein ratio with background correction (150 µL 40 mM K-Pi, pH 8.0, 10 µL DTNB 2 mM, 1.5 µL ligand stock or EtOH).

**Q.** How did the Emission maximum [1] turn out when `CCC=CCC1C(=O)C=CC1CCCCCCCC(=O)O` (stereo not drawn) [12-OPDA, cis-(+)-12-oxophytodienoic acid] was run?
**A.** 337.2±0.3

**Q.** And the “Relative fluorescence intensity at emission maximum” value [1]?
**A.** 117.5±2.0

**Q.** What about the “Relative fluorescence emission at 333 nm” value [2] of the same molecule?
**A.** 86.2 ± 3.9

**Q.** What about the “Free thiols (Cys residues) of LOX4 after incubation” value [3] of the same molecule?
**A.** 5.9 ± 0.1 mol·mol^−1

**Q.** Which results are given for `CC/C=C\CC1C(=O)CCC1CC(=O)OC` (stereo not shown) [MJ, methyl jasmonate]?
**A.** Emission maximum [1]: 337.3±0.6; Relative fluorescence intensity at emission maximum [1]: 119.7±2.7; Relative fluorescence emission at 333 nm [2]: 98.0 ± 2.4
